Source: US6479531B1, “Gastrin and cholecystokinin receptor ligands” (James Black Foundation Limited, priority 1998, dated 2002)
Structures can show the parent of a compound that is named as a salt.

Assays:
gastrin receptor = biological target: T1, gastrin receptor (Rattus norvegicus, UniProt P30553); experiment: gastrin antagonist activity in immature rat stomach assay (pentagastrin dose-response, acid secretion); conditions: isolated immature rat stomach, cumulative pentagastrin dose-response curves, read-out: Gastrin pKb (converted)
T1 construct: The stomach was excised and flushed with ca. 1 ml of unbuffered physiological saline solution; from tissue; host or cells: isolated whole stomach of immature rats (ca. 21 days old)
T1 sequence (P30553 1-452): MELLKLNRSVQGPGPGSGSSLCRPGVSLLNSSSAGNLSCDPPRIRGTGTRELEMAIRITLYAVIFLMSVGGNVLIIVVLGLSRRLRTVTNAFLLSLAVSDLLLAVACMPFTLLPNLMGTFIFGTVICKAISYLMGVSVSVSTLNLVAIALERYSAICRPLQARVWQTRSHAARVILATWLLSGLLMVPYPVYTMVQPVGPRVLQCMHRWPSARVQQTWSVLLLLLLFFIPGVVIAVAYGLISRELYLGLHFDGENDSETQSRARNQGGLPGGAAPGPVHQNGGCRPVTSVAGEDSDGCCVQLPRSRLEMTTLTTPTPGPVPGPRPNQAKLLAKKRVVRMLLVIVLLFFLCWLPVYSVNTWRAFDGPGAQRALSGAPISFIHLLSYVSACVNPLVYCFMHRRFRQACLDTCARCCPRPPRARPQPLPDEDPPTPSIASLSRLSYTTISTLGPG
Outline: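 Isolated, lumen-perfused stomach from immature rats (33-50 g, ca. 21 days) in a 37° organ bath with 3×10^−8 M 5-methylfurmethide, gassed 95% O2/5% CO2. Compound added serosally after 120 min stabilisation; cumulative pentagastrin dose-response curves begun 60 min later, acid secretion followed by perfusate pH.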

CCKB receptor = biological target: T2, CCKB receptor (Mus musculus, UniProt P56481); experiment: CCKB receptor radioligand binding assay in mouse cortical membranes; conditions: [125I]-CCK8(S) 200 pM, 150 min at 21±3°, read-out: CCKB pKi (converted)
T2 construct: The whole brains from male mice (CD1 22-25 g; Charles River) were removed; from tissue; host or cells: cerebral cortex membranes of male CD1 mice
T2 sequence (P56481 1-453): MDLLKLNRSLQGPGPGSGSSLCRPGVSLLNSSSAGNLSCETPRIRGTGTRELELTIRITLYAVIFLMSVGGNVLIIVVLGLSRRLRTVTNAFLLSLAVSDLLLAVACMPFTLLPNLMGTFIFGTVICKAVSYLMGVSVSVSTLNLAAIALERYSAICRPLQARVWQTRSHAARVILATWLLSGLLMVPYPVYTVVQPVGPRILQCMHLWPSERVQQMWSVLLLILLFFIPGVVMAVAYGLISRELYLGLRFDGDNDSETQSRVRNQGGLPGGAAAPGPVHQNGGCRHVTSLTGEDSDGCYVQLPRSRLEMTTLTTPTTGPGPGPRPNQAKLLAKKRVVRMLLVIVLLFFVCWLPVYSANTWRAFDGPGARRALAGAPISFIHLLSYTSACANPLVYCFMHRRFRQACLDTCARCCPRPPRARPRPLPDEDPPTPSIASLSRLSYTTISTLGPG
Outline: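 Bound radioactivity was gamma-counted after rapid GF/B filtration and cold 50 mM Tris-HCl (pH 7.4) washes. The tissue was cerebral cortex from male CD1 mice, prepared as twice-centrifuged membranes in pH 7.2 HEPES/NaCl/KCl/MgCl2/EDTA buffer with bacitracin at 20 mg/ml original wet weight.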

Kb (gastrin receptor) [nM]	Ki (CCKB receptor) [nM]	SMILES
63.1	851	O=C(O)c1cccc(NC(=O)c2nc(-c3ccccc3F)[nH]c2CCC2CCCCCC2)c1 [Example 43, 3-{[5-(2-Cycloheptyl-ethyl)-2-(2-fluoro-phenyl)-1H-imidazole-4-carbonyl]-amino}-benzoic Acid]
148	4170	O=C(O)c1cccc(NC(=O)c2nc([C@@H]3CCCN3)[nH]c2CCC23CC4CC(CC(C4)C2)C3)c1 [Example 136, (S)-3-{[5-(2-Adamantan-1-yl-ethyl)-2-pyrrolidin-2-yl-1H-imidazole-4-carbonyl]-amino}-benzoic Acid]
2510	646	O=C(O)c1cc(NC(=O)c2[nH]c(-c3ccccc3)nc2CCC23CC4CC(CC(C4)C2)C3)cc(C(=O)O)c1 [Example 46, 5-{[5-(2-Adamantan-1-yl-ethyl)-2-phenyl-1H-imidazole-4-carbonyl]-amino}-isophthalic Acid]
155	457	O=C(O)c1cccc(NC(=O)c2nc(-c3ccco3)[nH]c2CCC23CC4CC(CC(C4)C2)C3)c1 [Example 185, 3-{[5-(2-Adamantan-1-yl-ethyl)-2-furan-2-yl-1H-imidazole-4-carbonyl]-amino}benzoic Acid]
58.9	120	Cc1ccccc1-c1nc(C(=O)Nc2cccc(C(=O)O)c2)c(CCC23CC4CC(CC(C4)C2)C3)[nH]1 [Example 57, 3-{[5-(2-Adamantan-1-yl-ethyl)-2-o-tolyl-1H-imidazole-4-carbonyl]-amino}-benzoic Acid]
6.61	42.7	O=C(O)c1cccc(NC(=O)c2nc(C3CC=CCC3)[nH]c2CCC23CC4CC(CC(C4)C2)C3)c1 (centres unmarked) [Example 195, 3-{[5-(2-Adamantan-1-yl-ethyl)-2-cyclohex-3-enyl-1H-imidazole-4-carbonyl]-amino}-benzoic Acid]
70.8	776	O=C(O)c1cccc(NC(=O)c2[nH]c(C3CC3)nc2CCC23CC4CC(CC(C4)C2)C3)c1 [Example 197, 3-{[5-(2-Adamantan-1-yl-ethyl)-2-cyclopropyl-1H-imidazole-4-carbonyl]-amino}-benzoic Acid]
1260	209	O=C(O)c1cc(NC(=O)c2[nH]c(-c3ccccc3)nc2CC23CC4CC(CC(C4)C2)C3)cc(C(=O)O)c1 [Example 37, 5-[(5-Adamantan-1-ylmethyl-2-phenyl-1H-imidazole-4-carbonyl)-amino]-isophthalic Acid]
9.33	45.7	CCC(CC)c1nc(C(=O)Nc2cccc(C(=O)O)c2)c(CCC23CC4CC(CC(C4)C2)C3)[nH]1 [Example 112, 3-{[5-(2-Adamantan-1-yl-ethyl)-2-(1-ethyl-propyl)-1H-imidazole-4-carbonyl]-amino}-benzoic Acid]
234	251	O=C(O)c1cccc(NC(=O)c2[nH]c(-c3ccccc3)nc2CCC23CC4CC(CC(C4)C2)C3)c1 [Example 47, 3-{[5-(2-Adamantan-1-yl-ethyl)-2-phenyl-1H-imidazole-4-carbonyl]-amino}-benzoic Acid]
4680	60.3	Cc1ccccc1-c1nc(C(=O)Nc2ccc(N)c(C(=O)O)c2)c(CCC23CC4CC(CC(C4)C2)C3)[nH]1 [Example 241, 5-{[5-(2-Adamantan-1-yl-ethyl)-2-o-tolyl-1H-imidazole-4-carbonyl]-amino}-2-amino-benzoic Acid Dihydrochloride]
22.9	794	COc1ccccc1-c1nc(C(=O)Nc2cccc(C(=O)O)c2)c(CCC23CC4CC(CC(C4)C2)C3)[nH]1 [Example 58, 3-{[5-(2-Adamantan-1-yl-ethyl)-2-(2-methoxy-phenyl)-1H-imidazole-4-carbonyl]-amino}-benzoic Acid]
8.71	24.5	Cc1cc(C)c(-c2nc(C(=O)Nc3cccc(C(=O)O)c3)c(CCC34CC5CC(CC(C5)C3)C4)[nH]2)c(C)c1 [Example 154, 3-{[5-(2-Adamantan-1-yl-ethyl)-2-(2,4,6-trimethyl-phenyl)-1H-imidazole-4-carbonyl]-amino}-benzoic Acid]
263	200	Cc1ccccc1-c1nc(NC(=O)Nc2cccc(C(=O)O)c2)c(CCC23CC4CC(CC(C4)C2)C3)[nH]1 [Example 75, 3-{3-[5-(2-Adamantan-1-yl-ethyl)-2-o-tolyl-1H-imidazol-4-yl]-ureido}-benzoic Acid]
141	66.1	CC1(C)C2CC=C(c3nc(C(=O)Nc4cccc(C(=O)O)c4)c(CCC45CC6CC(CC(C6)C4)C5)[nH]3)C1C2 (centres unmarked) [Example 192, 3-{[5-(2-Adamantan-1-yl-ethyl)-2-(6,6-dimethyl-bicyclo[3.1.1]hept-2-en-2-yl)-1H-imidazole-4-carbonyl]-amino}-benzoic Acid]
5.13	324	CN1CCC[C@H]1c1nc(C(=O)Nc2cccc(C(=O)O)c2)c(CCC23CC4CC(CC(C4)C2)C3)[nH]1 [Example 137, (S)-3-{[5-(2-Adamantan-1-yl-ethyl)-2-(1-methyl-pyrrolidin-2-yl)-1H-imidazole-4-carbonyl]-amino}-benzoic Acid]
339	407	Nc1ccc(C(=O)O)cc1NC(=O)c1nc(C2CCCCC2)[nH]c1CCC12CC3CC(CC(C3)C1)C2 [Example 131, 3-{[5-(2-Adamantan-1-yl-ethyl)-2-cyclohexyl-1H-imidazole-4-carbonyl]-amino}-4-amino-benzoic Acid]
5.37	11.7	O=C(O)c1cccc(NC(=O)c2[nH]c(C3CCCCCC3)nc2CCC23CC4CC(CC(C4)C2)C3)c1 [Example 79, 3-{[5-(2-Adamantan-1-yl-ethyl)-2-cycloheptyl-1H-imidazole-4-carbonyl]-amino}-benzoic Acid]
51.3	151	O=C(O)c1cccc(NC(=O)c2nc(-c3ccc(Cl)cc3Cl)[nH]c2CCC23CC4CC(CC(C4)C2)C3)c1 [Example 146, 3-{[5-(2-Adamantan-1-yl-ethyl)-2-(2,4-dichlorophenyl)-1H-imidazole-4-carbonyl]-amino}-benzoic Acid]
3.63	36.3	O=C(O)c1cccc(NC(=O)c2nc(C3CC4C=CC3C4)[nH]c2CCC23CC4CC(CC(C4)C2)C3)c1 (racemic) [Example 117, (±)-exo-3-{[5-(2-Adamantan-1-yl-ethyl)-2-bicyclo[2.2.1]hept-5-ene-2-yl-1H-imidazole-4-carbonyl]-amino}-benzoic Acid]
0.468	2.95	Cc1ccc(NC(=O)c2nc(C3(C)CCCCC3)[nH]c2COC23CC4CC(CC(C4)C2)C3)cc1C(=O)O [Example 220, 5-([5-(Adamantan-1-yloxymethyl)-2-(1-methyl-cyclohexyl)-1H-imidazole-4-carbonyl]-amino}-2-methyl-benzoic Acid]
25.7	50.1	Cc1ccc(NC(=O)c2nc([C@@H]3CCCN3C)[nH]c2CCC23CC4CC(CC(C4)C2)C3)cc1C(=O)O [Example 138, (S)-5-{[5-(2-Adamantan-1-yl-ethyl)-2-(1-methyl-pyrrolidin-2-yl)-1H-imidazole-4-carbonyl]-amino}-2-methyl-benzoic Acid]
1050	339	O=C(O)c1cccc(NC(=O)c2nc(-c3cnc[nH]3)[nH]c2CCC23CC4CC(CC(C4)C2)C3)c1 [Example 110, 3-{[5-(2-Adamantan-1-yl-ethyl)-1H-3′H-[2,4′]biimidazolyl-4-carbonyl]-amino}-benzoic Acid]
1230	295	CN(C)c1ccc(-c2nc(C(=O)Nc3cccc(C(=O)O)c3)c(CCC34CC5CC(CC(C5)C3)C4)[nH]2)cc1 [Example 72, 3-{[5-(2-Adamantan-1-yl-ethyl)-2-(4-dimethylamino-phenyl)-1H-imidazole-4-carbonyl]-amino}-benzoic Acid]

SMILES	Kb (gastrin receptor) [nM]	Ki (CCKB receptor) [nM]
Cc1ccc(NC(=O)c2nc(C3CCCCC3)[nH]c2CCC23CC4CC(CC(C4)C2)C3)cc1C(=O)O [Example 135, 5-{[5-(2-Adamantan-1-yl-ethyl)-2-cyclohexyl-1H-imidazole-4-carbonyl]-amino}-2-methyl-benzoic Acid]	22.4	6.17
